{
  "source": "patent US7754880B2",
  "about": "“Uracils having a herbicidal activity” (Isagro Ricerca S.r.l., priority 2002, dated 2010)",
  "data": [
    {"units": {"melting point": "°C"}, "values": [
      {"smiles": "COC(=O)/C=C(\\COc1cc(-n2c(=O)cc(C(F)(F)F)n(C)c2=O)c(Cl)cc1Cl)OC", "note": "[Compound No 3, methyl (2E)-4-{2,4-dichloro-5-[1,2,3,6-tetrahydro-3-methyl-2,6-dioxo-4-(trifluoromethyl)pyrimidin-1-yl]phenoxy}-3-methoxybut-2-enoate]", "melting point": 116},
      {"smiles": "Cn1c(C(F)(F)F)cc(=O)n(-c2cc(OCc3nnn[nH]3)c(Cl)cc2F)c1=O", "note": "[Compound No 7, 3-[4-chloro-2-fluoro-5-(tetrazol-5-ylmethoxy)phenyl]-1-methyl-6-(trifluoromethyl)-2,4(1H,3H)-pyrimidinedione]", "melting point": 82},
      {"smiles": "CCn1nnc(COc2cc(-n3c(=O)cc(C(F)(F)F)n(C)c3=O)c(F)cc2Cl)n1", "note": "[Compound No 8, 3-{4-chloro-2-fluoro-5-[(2-ethyl-2H-tetrazol-5-yl)methoxy]phenyl}-1-methyl-6-(trifluoromethyl)-2,4(1H,3H)-pyrimidinedione]", "melting point": 126},
      {"smiles": "CCn1nnnc1COc1cc(-n2c(=O)cc(C(F)(F)F)n(C)c2=O)c(F)cc1Cl", "note": "[Compound No 9, 3-{4-chloro-2-fluoro-5-[(1-ethyl-1H-tetrazol-5-yl)methoxy]phenyl}-1-methyl-6-(trifluoromethyl)-2,4(1H,3H)-pyrimidinedione]", "melting point": 60},
      {"smiles": "COC(=O)Cn1nnnc1COc1cc(-n2c(=O)cc(C(F)(F)F)n(C)c2=O)c(F)cc1Cl", "note": "[Compound No 10, methyl [5-({2-chloro-4-fluoro-5-[1,2,3,6-tetrahydro-3-methyl-2,6-dioxo-4-(trifluoromethyl)pyrimidin-1-yl]phenoxy}methyl)-1H-tetrazol-1-yl]acetate]", "melting point": 243},
      {"smiles": "COC(=O)Cn1nnc(COc2cc(-n3c(=O)cc(C(F)(F)F)n(C)c3=O)c(F)cc2Cl)n1", "note": "[Compound No 11, methyl [5-({2-chloro-4-fluoro-5-[1,2,3,6-tetrahydro-3-methyl-2,6-dioxo-4-(trifluoromethyl)pyrimidin-1-yl]phenoxy}methyl)-2H-tetrazol-2-yl]acetate]", "melting point": 65},
      {"smiles": "Cn1nnnc1-c1cc(-n2c(=O)cc(C(F)(F)F)n(C)c2=O)ccc1Cl", "note": "[Compound No 14, 3-[4-chloro-3-(1-methyl-1H-tetrazol-5-yl)phenyl]-1-methyl-6-(trifluoromethyl)-2,4(1H,3H)-pyrimidinedione]", "melting point": 185},
      {"smiles": "CCn1nnc(-c2cc(-n3c(=O)cc(C(F)(F)F)n(C)c3=O)ccc2Cl)n1", "note": "[Compound No 15, 3-[4-chloro-3-(2-ethyl-2H-tetrazol-5-yl)phenyl]-1-methyl-6-(trifluoromethyl)-2,4(1H,3H)-pyrimidinedione]", "melting point": 136},
      {"smiles": "CCn1nnnc1-c1cc(-n2c(=O)cc(C(F)(F)F)n(C)c2=O)ccc1Cl", "note": "[Compound No 16, 3-[4-chloro-3-(1-ethyl-1H-tetrazol-5-yl)phenyl]-1-methyl-6-(trifluoromethyl)-2,4(1H,3H)-pyrimidinedione]", "melting point": 202},
      {"smiles": "COC(=O)Cn1nnc(-c2cc(-n3c(=O)cc(C(F)(F)F)n(C)c3=O)ccc2Cl)n1", "note": "[Compound No 17, methyl (5-{2-chloro-5-[1,2,3,6-tetrahydro-3-methyl-2,6-dioxo-4-(trifluoromethyl)pyrimidin-1-yl]phenyl}-2H-tetrazol-2-yl)acetate]", "melting point": 172},
      {"smiles": "COC(=O)Cn1nnnc1-c1cc(-n2c(=O)cc(C(F)(F)F)n(C)c2=O)ccc1Cl", "note": "[Compound No 18, methyl (5-{2-chloro-5-[1,2,3,6-tetrahydro-3-methyl-2,6-dioxo-4-(trifluoromethyl)pyrimidin-1-yl]phenyl}-1H-tetrazol-1-yl)acetate]", "melting point": 130},
      {"smiles": "Cn1nnc(COc2cc(-n3c(=O)cc(C(F)(F)F)n(C)c3=O)c(F)cc2Cl)n1", "note": "[Compound No 42, 3-{4-chloro-2-fluoro-5-[(2-methyl-2H-tetrazol-5-yl)methoxy]phenyl}-1-methyl-6-(trifluoromethyl)-2,4(1H,3H)-pyrimidinedione]", "melting point": 167},
      {"smiles": "Cn1c(C(F)(F)F)cc(=O)n(-c2cc(Oc3nnc(C(F)(F)F)s3)c(Cl)cc2Cl)c1=O", "note": "[Compound No 84, 3-(2,4-dichloro-5-{[5-(trifluoromethyl)-1,3,4-thiadiazol-2-yl]oxy}phenyl)-1-methyl-6-(trifluoromethyl)-2,4(1H,3H)-pyrimidinedione]", "melting point": 90},
      {"smiles": "CCOC(=O)/C=C(\\COc1cc(-n2c(=O)cc(C(F)(F)F)n(C)c2=O)c(Cl)cc1Cl)OC", "note": "[Compound No 99, ethyl (2E)-4-{2,4-dichloro-5-[1,2,3,6-tetrahydro-3-methyl-2,6-dioxo-4-(trifluoromethyl)pyrimidin-1-yl]phenoxy}-3-methoxybut-2-enoate]", "melting point": 128},
      {"smiles": "CCOC(=O)/C=C(\\COc1cc(-n2c(=O)cc(C(F)(F)F)n(C)c2=O)c(F)cc1Cl)OC", "note": "[Compound No 100, ethyl (2E)-4-{2-chloro-4-fluoro-5-[1,2,3,6-tetrahydro-3-methyl-2,6-dioxo-4-(trifluoromethyl)pyrimidin-1-yl]phenoxy}-3-methoxybut-2-enoate]", "melting point": 78},
      {"smiles": "COCn1nnc(-c2cc(-n3c(=O)cc(C(F)(F)F)n(C)c3=O)ccc2Cl)n1", "note": "[Compound No 101, 3-{4-chloro-3-[2-(methoxymethyl)-2H-tetrazol-5-yl]phenyl}-1-methyl-6-(trifluoromethyl)-2,4(1H,3H)-pyrimidinedione]", "melting point": 80},
      {"smiles": "COCn1nnnc1-c1cc(-n2c(=O)cc(C(F)(F)F)n(C)c2=O)ccc1Cl", "note": "[Compound No 102, 3-{4-chloro-3-[1-(methoxymethyl)-1H-tetrazol-5-yl]phenyl}-1-methyl-6-(trifluoromethyl)-2,4(1H,3H)-pyrimidinedione]", "melting point": 182},
      {"smiles": "CCOCn1nnc(-c2cc(-n3c(=O)cc(C(F)(F)F)n(C)c3=O)ccc2Cl)n1", "note": "[Compound No 103, 3-{4-chloro-3-[2-(ethoxymethyl)-2H-tetrazol-5-yl]phenyl}-1-methyl-6-(trifluoromethyl)-2,4(1H,3H)-pyrimidinedione]", "melting point": 140},
      {"smiles": "CCOCn1nnnc1-c1cc(-n2c(=O)cc(C(F)(F)F)n(C)c2=O)ccc1Cl", "note": "[Compound No 104, 3-{4-chloro-3-[1-(ethoxymethyl)-1H-tetrazol-5-yl]phenyl}-1-methyl-6-(trifluoromethyl)-2,4(1H,3H)-pyrimidinedione]", "melting point": 157},
      {"smiles": "C=CCn1nnc(-c2cc(-n3c(=O)cc(C(F)(F)F)n(C)c3=O)ccc2Cl)n1", "note": "[Compound No 105, 3-[3-(2-allyl-2H-tetrazol-5-yl)-4-chlorophenyl]-1-methyl-6-(trifluoromethyl)-2,4(1H,3H)-pyrimidinedione]", "melting point": 116},
      {"smiles": "C=CCn1nnnc1-c1cc(-n2c(=O)cc(C(F)(F)F)n(C)c2=O)ccc1Cl", "note": "[Compound No 106, 3-[3-(1-allyl-1H-tetrazol-5-yl)-4-chlorophenyl]-1-methyl-6-(trifluoromethyl)-2,4(1H,3H)-pyrimidinedione]", "melting point": 160},
      {"smiles": "Cc1cc(COc2cc(-n3c(=O)cc(C(F)(F)F)n(C)c3=O)c(F)cc2Cl)on1", "note": "[Compound No 107, 3-{4-chloro-2-fluoro-5-[(3-methylisoxazol-5-yl)methoxy]phenyl}-1-methyl-6-(trifluoromethyl)-2,4(1H,3H)-pyrimidinedione]", "melting point": 154},
      {"smiles": "Cc1cc(COc2cc(-n3c(=O)cc(C(F)(F)F)n(C)c3=O)c(Cl)cc2Cl)on1", "note": "[Compound No 108, 3-{2,4-dichloro-5-[(3-methylisoxazol-5-yl)methoxy]phenyl}-1-methyl-6-(trifluoromethyl)-2,4(1H,3H)-pyrimidinedione]", "melting point": 185},
      {"smiles": "Cc1nc(COc2cc(-n3c(=O)cc(C(F)(F)F)n(C)c3=O)c(Cl)cc2Cl)no1", "note": "[Compound No 112, 3-{2,4-dichloro-5-[(5-methyl-1,2,4-oxadiazol-3-yl)methoxy]phenyl}-1-methyl-6-(trifluoromethyl)-2,4(1H,3H)-pyrimidinedione]", "melting point": 167},
      {"smiles": "Cn1c(C(F)(F)F)cc(=O)n(-c2ccc(Cl)c(-c3nc4ccccc4s3)c2)c1=O", "note": "[Compound No 113, 3-[3-(1,3-benzothiazol-2-yl)-4-chlorophenyl]-1-methyl-6-(trifluoromethyl)-2,4(1H,3H)-pyrimidinedione]", "melting point": 189},
      {"smiles": "Cn1c(C(F)(F)F)cc(=O)n(-c2ccc(Cl)c(-c3nc4ccccc4o3)c2)c1=O", "note": "[Compound No 114, 3-[3-(1,3-benzoxazol-2-yl)-4-chlorophenyl]-1-methyl-6-(trifluoromethyl)-2,4(1H,3H)-pyrimidinedione]", "melting point": 183},
      {"smiles": "Cn1c(C(F)(F)F)cc(=O)n(-c2cc(OCc3ncon3)c(Cl)cc2F)c1=O", "note": "[Compound No 117, 3-[4-chloro-2-fluoro-5-(1,2,4-oxadiazol-3-ylmethoxy)phenyl]-1-methyl-6-(trifluoromethyl)-2,4(1H,3H)-pyrimidinedione]", "melting point": 122},
      {"smiles": "Cn1c(C(F)(F)F)cc(=O)n(-c2ccc(Cl)c(-c3nnn(C(C)(C)C)n3)c2)c1=O", "note": "[Compound No 118, 3-[3-(2-tert-butyl-2H-tetrazol-5-yl)-4-chlorophenyl]-1-methyl-6-(trifluoromethyl)-2,4(1H,3H)-pyrimidinedione]", "melting point": 154},
      {"smiles": "Cn1c(C(F)(F)F)cc(=O)n(-c2cc(-c3nc4ccccc4s3)c(Cl)cc2F)c1=O", "note": "[Compound No 119, 3-[5-(1,3-benzothiazol-2-yl)-4-chloro-2-fluorophenyl]-1-methyl-6-(trifluoromethyl)-2,4(1H,3H)-pyrimidinedione]", "melting point": 211},
      {"smiles": "Cn1c(C(F)(F)F)cc(=O)n(-c2cc(-c3nc4ccccc4o3)c(Cl)cc2F)c1=O", "note": "[Compound No 122, 3-[5-(1,3-benzoxazol-2-yl)-4-chloro-2-fluorophenyl]-1-methyl-6-(trifluoromethyl)-2,4(1H,3H)-pyrimidinedione]", "melting point": 178},
      {"smiles": "Cn1c(C(F)(F)F)cc(=O)n(-c2cc(-c3nc4ccccc4s3)c(Cl)cc2Cl)c1=O", "note": "[Compound No 123, 3-[5-(1,3-benzothiazol-2-yl)-2,4-dichlorophenyl]-1-methyl-6-(trifluoromethyl)-2,4(1H,3H)-pyrimidinedione]", "melting point": 195},
      {"smiles": "Cc1ccc2nc(-c3cc(-n4c(=O)cc(C(F)(F)F)n(C)c4=O)c(Cl)cc3Cl)oc2c1", "note": "[Compound No 124, 3-[2,4-dichloro-5-(6-methyl-1,3-benzoxazol-2-yl)phenyl]-1-methyl-6-(trifluoromethyl) 2,4(1H,3H)-pyrimidinedione]", "melting point": 200}
    ]}
  ]
}
